The structures appear in SMILES notation.

Assay [1] concerns the target T1, D(2) dopamine receptor (Homo sapiens, UniProt P14416). Put plainly: In vitro binding affinity at human cloned dopamine receptor D2 (short) stably expressed in CHO cells by [3H]spiperone displacement. Type of assay: cell-based.
Assay [2] deals with T2, D(4) dopamine receptor (Homo sapiens, UniProt P21917).
T2 sequence (P21917 whole entry): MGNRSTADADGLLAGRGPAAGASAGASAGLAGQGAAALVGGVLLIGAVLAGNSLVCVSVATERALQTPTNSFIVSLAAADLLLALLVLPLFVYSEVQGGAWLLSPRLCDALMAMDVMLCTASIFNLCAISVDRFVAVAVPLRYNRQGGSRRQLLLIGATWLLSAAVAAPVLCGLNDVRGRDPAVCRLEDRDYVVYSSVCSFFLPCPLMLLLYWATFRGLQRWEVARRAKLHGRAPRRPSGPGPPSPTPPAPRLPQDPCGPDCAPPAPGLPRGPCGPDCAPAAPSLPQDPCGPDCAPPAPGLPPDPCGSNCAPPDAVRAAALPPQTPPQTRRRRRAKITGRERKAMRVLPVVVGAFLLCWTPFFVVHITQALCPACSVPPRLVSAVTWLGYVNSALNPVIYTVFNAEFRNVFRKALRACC
Put plainly: In vitro binding affinity at human cloned dopamine receptor D4 stably expressed in CHO cells by [3H]spiperone displacement. Type of assay: cell-based.

In another assay the target is D(3) dopamine receptor (Homo sapiens, UniProt P35462). Put plainly: In vitro binding affinity at human cloned dopamine receptor D3 stably expressed in CHO cells by [3H]spiperone displacement. It is filed as cell-based.
Sequence of D(3) dopamine receptor (P35462 whole entry): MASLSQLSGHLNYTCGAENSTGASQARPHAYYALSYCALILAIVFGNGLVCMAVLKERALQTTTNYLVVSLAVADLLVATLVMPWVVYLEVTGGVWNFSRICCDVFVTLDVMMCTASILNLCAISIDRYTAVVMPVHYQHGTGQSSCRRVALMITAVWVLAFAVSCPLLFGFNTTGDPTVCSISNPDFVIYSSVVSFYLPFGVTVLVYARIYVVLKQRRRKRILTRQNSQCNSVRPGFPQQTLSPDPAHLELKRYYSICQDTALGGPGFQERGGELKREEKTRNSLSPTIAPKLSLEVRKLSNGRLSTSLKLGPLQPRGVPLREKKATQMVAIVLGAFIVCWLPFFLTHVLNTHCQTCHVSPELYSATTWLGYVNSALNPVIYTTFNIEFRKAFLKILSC
Assay [3] has as its target T1, D(2) dopamine receptor. The experiment in a line: In vitro binding affinity at human cloned dopamine receptor D2 (long) stably expressed in CHO cells by [3H]-Spiperone displacement. It is filed as cell-based.
The target in assay [4] is T2, D(4) dopamine receptor. Put plainly: Tested for the effective concentration against human D4.2 receptor in CHO 10001 cells established in mitogenesis assay. Type of assay: functional, cell-based.
Assay [5] in a line: Compound was tested in vitro for its ability to compete with [3H]-ketanserin at 5-hydroxytryptamine 2 receptor in porcine brain homogenate. It is filed as tissue-based.
Assay [6] concerns the target T1, D(2) dopamine receptor. Put plainly: Binding affinity of compound was tested in vitro for its ability to compete with [3H]spiperone radioligand at cloned human Dopamine receptor D2L stably expressed in CHO cells. It is filed as cell-based.
Assay [7] addresses T3, D(4) dopamine receptor (Homo sapiens) (UniProt P21917).
T3 sequence (whole entry): T2 sequence (P21917 whole entry)
The experiment in a line: Intrinsic activity as rate of incorporation of [3H]thymidine in human D4.2 receptor established in mitogenesis assay relative to quinpirole. Type of assay: functional.

T1 sequence (P14416 whole entry): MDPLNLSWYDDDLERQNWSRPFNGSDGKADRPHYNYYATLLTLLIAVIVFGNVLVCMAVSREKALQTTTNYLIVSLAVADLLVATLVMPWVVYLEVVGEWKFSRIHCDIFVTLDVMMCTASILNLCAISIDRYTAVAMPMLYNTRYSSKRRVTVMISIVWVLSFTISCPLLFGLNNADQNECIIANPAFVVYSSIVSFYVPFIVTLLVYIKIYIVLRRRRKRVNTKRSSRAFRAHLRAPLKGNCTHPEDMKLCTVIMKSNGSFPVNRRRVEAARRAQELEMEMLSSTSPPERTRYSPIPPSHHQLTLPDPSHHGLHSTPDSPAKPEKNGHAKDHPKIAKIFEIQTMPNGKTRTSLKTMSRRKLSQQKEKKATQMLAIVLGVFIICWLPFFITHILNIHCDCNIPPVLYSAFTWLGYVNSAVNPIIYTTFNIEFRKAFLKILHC

For the compound `Cc1nn2c(-c3ccccc3)cccc2c1CN1CCN(c2ccc(Cl)cc2)CC1`, the Ki came out at 24 µM at D(2) dopamine receptor [1], 0.037 µM at D(4) dopamine receptor [2], 3.1 µM at D(3) dopamine receptor and 28 µM on D(2) dopamine receptor [3].

In the case of `C[Si](C)(C)c1cccc2c(CN3CCN(c4ccc(Cl)cc4)CC3)cnn12`, the Ki at D(2) dopamine receptor [1] is 2.8 µM; on D(4) dopamine receptor [2], 0.0028 µM; at D(3) dopamine receptor, 2 µM; on D(2) dopamine receptor [3], 3.1 µM.

With `Clc1ccc(N2CCN(Cc3cnn4c(-c5ccccc5)cccc34)CC2)cc1`, the Ki on D(2) dopamine receptor [1] worked out at 2.8 µM; on D(4) dopamine receptor [2] it was 0.0076 µM; at D(3) dopamine receptor, 0.84 µM; at D(2) dopamine receptor [3], 5.4 µM.

Take `Cc1nn2c(N3CCN(Cc4ccccc4)CC3)cccc2c1CN1CCN(c2ccc(Cl)cc2)CC1`: the Ki on D(2) dopamine receptor [1] turned out to be 0.12 µM; on D(4) dopamine receptor [2], 0.026 µM; at D(3) dopamine receptor, 0.27 µM; at D(2) dopamine receptor [3], 0.3 µM.

With `O=Cc1cccc2c(CN3CCN(c4ccc(Cl)cc4)CC3)cnn12`, the Ki at D(2) dopamine receptor [1] worked out at 9.2 µM; at D(4) dopamine receptor [2], 0.0026 µM; at D(3) dopamine receptor it was 5.9 µM; on D(2) dopamine receptor [3] it was 9.5 µM.

In the case of `Clc1ccc(N2CCN(Cc3cnn4c(N5CCN(Cc6ccccc6)CC5)cccc34)CC2)cc1`, the Ki at D(2) dopamine receptor [1] worked out at 0.4 µM; at D(4) dopamine receptor [2] it was 0.18 µM; on D(3) dopamine receptor, 0.41 µM; at D(2) dopamine receptor [3], 0.64 µM.

`OCc1cccn2ncc(CN3CCN(c4ccc(Cl)cc4)CC3)c12`: the Ki was 79 µM on D(2) dopamine receptor [1], 0.11 µM at D(4) dopamine receptor [2], > 100 µM at D(3) dopamine receptor and 56 µM at D(2) dopamine receptor [3].

For `Cc1cccc2c(CN3CCN(c4ccc(Cl)cc4)CC3)cnn12`, the Ki was 5 µM at D(2) dopamine receptor [1], 3.8 µM on D(3) dopamine receptor and 4.9 µM on D(2) dopamine receptor [3].

As to `C#Cc1cccc2c(CN3CCN(c4ccc(Cl)cc4)CC3)c(C)nn12`, the inhibition constant Ki at D(2) dopamine receptor [1] worked out at 25 µM; on D(4) dopamine receptor [2] it was 0.0015 µM; on D(3) dopamine receptor, 17 µM; at D(2) dopamine receptor [3], 21 µM.

`Cc1cccn2ncc(CN3CCN(c4ccc(Cl)cc4)CC3)c12`: the Ki at D(2) dopamine receptor [1] is 12 µM; at D(3) dopamine receptor it was 9.4 µM; at D(2) dopamine receptor [3] it was 13 µM.

Turning to `Fc1ccc(-c2cccc3c(CN4CCN(c5ccc(Cl)cc5)CC4)cnn23)cc1`, the inhibition constant Ki at D(2) dopamine receptor [1] was found to be 15 µM; on D(4) dopamine receptor [2], 0.029 µM; on D(3) dopamine receptor it was 5.7 µM; on D(2) dopamine receptor [3], 15 µM.

`Cc1nn2c(-c3ccc(F)cc3)cccc2c1CN1CCN(c2ccc(Cl)cc2)CC1`: the Ki amounted to 16 µM at D(2) dopamine receptor [1], 0.087 µM at D(4) dopamine receptor [2], 3.8 µM on D(3) dopamine receptor and 14 µM on D(2) dopamine receptor [3].

On D(4) dopamine receptor [4], `N#Cc1cccc2c(CN3CCN(c4ccc(Cl)cc4)CC3)cnn12` yielded a 50% effective concentration (EC50) of 0.0015 µM. Further, the inhibition constant Ki at D(2) dopamine receptor [1] came out at 45 µM; at D(4) dopamine receptor [2] it was 0.0015 µM; on D(3) dopamine receptor, 26 µM; in assay [5] it was 0.18 µM; on D(2) dopamine receptor [6], 44 µM. Moreover, the Intrinsic activity in assay [7] was found to be 31%.

Consider `C#Cc1cccc2c(CN3CCN(c4ccc(Cl)cc4)CC3)cnn12`, for which the Ki at D(2) dopamine receptor [1] came out at 6.2 µM; at D(3) dopamine receptor, 4.6 µM; at D(2) dopamine receptor [3] it was 3.7 µM.

In the case of `Cc1nn2c(C#N)cccc2c1CN1CCN(c2ccc(Cl)cc2)CC1`, the 50% effective concentration (EC50) at D(4) dopamine receptor [4] is 0.012 µM. Besides, the Ki on D(2) dopamine receptor [1] came to 58 µM; on D(4) dopamine receptor [2], 0.0023 µM; at D(3) dopamine receptor, 21 µM; in assay [5], 1 µM; on D(2) dopamine receptor [6], 59 µM. This compound also showed an Intrinsic activity in assay [7] of 26%.

Consider `OCc1ccc2c(CN3CCN(c4ccc(Cl)cc4)CC3)cnn2c1`, for which the Ki on D(2) dopamine receptor [1] worked out at 22 µM; on D(4) dopamine receptor [2], 0.02 µM; on D(3) dopamine receptor, 2.6 µM; on D(2) dopamine receptor [3], 28 µM.
